Test results reported in patent US20260042731A1, “(2,4-DICHLOROPHENOXY)ACETIC ACID ANALOGS” (CORTEVA AGRISCIENCE LLC, priority 2022, published 2026).
Where two headings read alike, the source gives them in different places.

How the values were obtained:
[1] = tested on: weeds (ABUTH, AMATA, AMBEL, CHEAL, ERICA); test: Postemergence herbicide evaluation, overall average % weed control across ABUTH, AMATA, AMBEL, CHEAL, ERICA; format: in vivo; conditions: post-emergence, average over the five weeds, read-out: Overall Ave % Weed Control; for pest or weed control at 280 g/ha: 280 g ae/ha; for pest or weed control at 560 g/ha: 560 g ae/ha
[2] = tested on: Abutilon theophrasti (ABUTH), velvetleaf; test: Postemergence herbicide evaluation, growth of Abutilon theophrasti (ABUTH); format: in vivo; conditions: Abutilon theophrasti, post-emergence, percent reduction in plant size relative to untreated control, read-out: AVE. ABUTH; for pest or weed control at 280 g/ha: 280 g ae/ha; for pest or weed control at 560 g/ha: 560 g ae/ha
[3] = tested on: Chenopodium album (CHEAL), common lambsquarters; test: Postemergence herbicide evaluation, growth of Chenopodium album (CHEAL); format: in vivo; conditions: Chenopodium album, post-emergence, percent reduction in plant size relative to untreated control, read-out: Ave. CHEAL; for pest or weed control at 280 g/ha: 280 g ae/ha; for pest or weed control at 560 g/ha: 560 g ae/ha
[4] = tested on: Ambrosia artemisiifolia (AMBEL), common ragweed; test: Postemergence herbicide evaluation, growth of Ambrosia artemisiifolia (AMBEL); format: in vivo; conditions: Ambrosia artemisiifolia, post-emergence, percent reduction in plant size relative to untreated control, read-out: AVE. AMBEL; for pest or weed control at 280 g/ha: 280 g ae/ha; for pest or weed control at 560 g/ha: 560 g ae/ha
[5] = Volatility of compounds measured by thermogravimetric analysis (TGA); format: physicochemical
[6] = tested on: Amaranthus rudis (AMATA), tall water hemp; test: Postemergence herbicide evaluation, growth of Amaranthus rudis (AMATA); format: in vivo; conditions: Amaranthus tuberculatus, post-emergence, percent reduction in plant size relative to untreated control, read-out: Ave. AMATA; for pest or weed control at 280 g/ha: 280 g ae/ha; for pest or weed control at 560 g/ha: 560 g ae/ha
[7] = tested on: glyphosate resistant Conyza canadensis (L.) (ERICA), horseweed; test: Postemergence herbicide evaluation, growth of Conyza canadensis (ERICA); format: in vivo; conditions: Erigeron canadensis, post-emergence, percent reduction in plant size relative to untreated control, read-out: Ave. ERICA; for pest or weed control at 280 g/ha: 280 g ae/ha; for pest or weed control at 560 g/ha: 560 g ae/ha

SMILES: O=C(COc1ccc(Cl)cc1Cl)NOc1ccccc1 [Compound D7]
- pest or weed control at 280 g/ha ([1]; 168 h, 7 DAA): 66%
- pest or weed control at 560 g/ha ([1]; 168 h, 7 DAA): 73%
- pest or weed control at 280 g/ha ([1]; 336 h, 14 DAA): 77%
- pest or weed control at 560 g/ha ([1]; 336 h, 14 DAA): 85%
- pest or weed control at 280 g/ha ([1]; 504 h, 21 DAA): 82%
- pest or weed control at 560 g/ha ([1]; 504 h, 21 DAA): 89%
- pest or weed control at 280 g/ha ([2]; 168 h, 7 DAA): 68%
- pest or weed control at 560 g/ha ([2]; 168 h, 7 DAA): 80%
- pest or weed control at 280 g/ha ([2]; 336 h, 14 DAA): 68%
- pest or weed control at 560 g/ha ([2]; 336 h, 14 DAA): 85%
- pest or weed control at 280 g/ha ([2]; 504 h, 21 DAA): 70%
- pest or weed control at 560 g/ha ([2]; 504 h, 21 DAA): 92%
- pest or weed control at 280 g/ha ([3]; 168 h, 7 DAA): 65%
- pest or weed control at 560 g/ha ([3]; 168 h, 7 DAA): 68%
- pest or weed control at 280 g/ha ([3]; 336 h, 14 DAA): 70%
- pest or weed control at 560 g/ha ([3]; 336 h, 14 DAA): 75%
- pest or weed control at 280 g/ha ([3]; 504 h, 21 DAA): 70%
- pest or weed control at 560 g/ha ([3]; 504 h, 21 DAA): 78%
- pest or weed control at 280 g/ha ([4]; 168 h, 7 DAA): 63%
- pest or weed control at 560 g/ha ([4]; 168 h, 7 DAA): 73%
- pest or weed control at 280 g/ha ([4]; 336 h, 14 DAA): 83%
- pest or weed control at 560 g/ha ([4]; 336 h, 14 DAA): 89%
- pest or weed control at 280 g/ha ([4]; 504 h, 21 DAA): 95%
- pest or weed control at 560 g/ha ([4]; 504 h, 21 DAA): 97%
- TGA Data (rate of weight loss, volatility) [5]: 0.2 µg/min
- pest or weed control at 280 g/ha ([6]; 168 h, 7 DAA): 73%
- pest or weed control at 560 g/ha ([6]; 168 h, 7 DAA): 80%
- pest or weed control at 280 g/ha ([6]; 336 h, 14 DAA): 83%
- pest or weed control at 560 g/ha ([6]; 336 h, 14 DAA): 90%
- pest or weed control at 280 g/ha ([6]; 504 h, 21 DAA): 83%
- pest or weed control at 560 g/ha ([6]; 504 h, 21 DAA): 83%
- pest or weed control at 280 g/ha ([7]; 168 h, 7 DAA): 63%
- pest or weed control at 560 g/ha ([7]; 168 h, 7 DAA): 63%
- pest or weed control at 280 g/ha ([7]; 336 h, 14 DAA): 83%
- pest or weed control at 560 g/ha ([7]; 336 h, 14 DAA): 85%
- pest or weed control at 280 g/ha ([7]; 504 h, 21 DAA): 95%
- pest or weed control at 560 g/ha ([7]; 504 h, 21 DAA): 95%

SMILES: CN(NC(=O)COc1ccc(Cl)cc1Cl)C(=O)c1ccccc1 [Compound D9, N′-(2-(2,4-Dichlorophenoxy)acetyl)-N-methylbenzohydrazide]
- pest or weed control at 280 g/ha ([1]; 168 h, 7 DAA): 60%
- pest or weed control at 560 g/ha ([1]; 168 h, 7 DAA): 63%
- pest or weed control at 280 g/ha ([1]; 336 h, 14 DAA): 72%
- pest or weed control at 560 g/ha ([1]; 336 h, 14 DAA): 75%
- pest or weed control at 280 g/ha ([1]; 504 h, 21 DAA): 80%
- pest or weed control at 560 g/ha ([1]; 504 h, 21 DAA): 75%
- pest or weed control at 280 g/ha ([2]; 168 h, 7 DAA): 43%
- pest or weed control at 560 g/ha ([2]; 168 h, 7 DAA): 43%
- pest or weed control at 280 g/ha ([2]; 336 h, 14 DAA): 45%
- pest or weed control at 560 g/ha ([2]; 336 h, 14 DAA): 48%
- pest or weed control at 280 g/ha ([2]; 504 h, 21 DAA): 45%
- pest or weed control at 560 g/ha ([2]; 504 h, 21 DAA): 50%
- pest or weed control at 280 g/ha ([3]; 168 h, 7 DAA): 65%
- pest or weed control at 560 g/ha ([3]; 168 h, 7 DAA): 65%
- pest or weed control at 280 g/ha ([3]; 336 h, 14 DAA): 73%
- pest or weed control at 560 g/ha ([3]; 336 h, 14 DAA): 78%
- pest or weed control at 280 g/ha ([3]; 504 h, 21 DAA): 95%
- pest or weed control at 560 g/ha ([3]; 504 h, 21 DAA): 90%
- pest or weed control at 280 g/ha ([4]; 168 h, 7 DAA): 60%
- pest or weed control at 560 g/ha ([4]; 168 h, 7 DAA): 73%
- pest or weed control at 280 g/ha ([4]; 336 h, 14 DAA): 83%
- pest or weed control at 560 g/ha ([4]; 336 h, 14 DAA): 94%
- pest or weed control at 280 g/ha ([4]; 504 h, 21 DAA): 85%
- pest or weed control at 560 g/ha ([4]; 504 h, 21 DAA): 99%
- TGA Data (rate of weight loss, volatility) [5]: 0.2 µg/min
- pest or weed control at 280 g/ha ([6]; 168 h, 7 DAA): 65%
- pest or weed control at 560 g/ha ([6]; 168 h, 7 DAA): 68%
- pest or weed control at 280 g/ha ([6]; 336 h, 14 DAA): 75%
- pest or weed control at 560 g/ha ([6]; 336 h, 14 DAA): 70%
- pest or weed control at 280 g/ha ([6]; 504 h, 21 DAA): 83%
- pest or weed control at 560 g/ha ([6]; 504 h, 21 DAA): 73%
- pest or weed control at 280 g/ha ([7]; 168 h, 7 DAA): 65%
- pest or weed control at 560 g/ha ([7]; 168 h, 7 DAA): 68%
- pest or weed control at 280 g/ha ([7]; 336 h, 14 DAA): 83%
- pest or weed control at 560 g/ha ([7]; 336 h, 14 DAA): 88%
- pest or weed control at 280 g/ha ([7]; 504 h, 21 DAA): 94%
- pest or weed control at 560 g/ha ([7]; 504 h, 21 DAA): 65%
